Data as given in ChEMBL document CHEMBL4477270, “Design, synthesis, and protein methyltransferase activity of a unique set of constrained amine containing compounds” (Bioorg Med Chem Lett, 2016).

What follows are compounds tested against T1, N-lysine methyltransferase KMT5A (Homo sapiens, UniProt Q9NQR1) (assay: Inhibition of SETD8 in HEK293T cells assessed as reduction in H4K20me level after 2 to 3 days by Western blot analysis).
T1 sequence (Q9NQR1 whole entry): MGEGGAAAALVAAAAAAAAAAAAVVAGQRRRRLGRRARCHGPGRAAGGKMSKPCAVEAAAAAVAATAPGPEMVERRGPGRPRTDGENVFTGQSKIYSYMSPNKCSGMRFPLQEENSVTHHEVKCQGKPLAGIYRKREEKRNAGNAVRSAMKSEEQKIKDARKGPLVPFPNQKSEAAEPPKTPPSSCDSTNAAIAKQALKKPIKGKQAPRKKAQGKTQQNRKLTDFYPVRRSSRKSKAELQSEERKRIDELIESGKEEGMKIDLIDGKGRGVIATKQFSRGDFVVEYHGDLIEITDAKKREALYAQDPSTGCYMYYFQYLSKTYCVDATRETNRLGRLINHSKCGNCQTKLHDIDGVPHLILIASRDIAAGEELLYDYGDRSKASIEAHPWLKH
Assay type: cell-based

| Compound | EC50 [µM] |
| --- | --- |
| O=C1C(Cl)=C(NCCN2CCOCC2)C(=O)c2ncccc21 | < 5 |
| CC1(C)C(=O)N=C2C1=C(O)C(=O)c1ccccc12 | < 5 |
| Cc1ccc(/N=C2\CC(=O)c3sc(C)nc3C2=O)cc1 | < 1 |
